Measurements taken from US20220401514A1, “ANTIMICROBIAL, BACTERIOPHAGE-DERIVED POLYPEPTIDES AND THEIR USE AGAINST GRAM-NEGATIVE AND ACID-FAST BACTERIA” (CONTRAFECT CORPORATION, priority 2019, published 2022).

What was measured:
[1] = test system: P. aeruginosa strain PAO1; test: MIC against PAO1 in Mueller-Hinton broth with 50% human plasma or human serum; type: cell-based, Pseudomonas aeruginosa; conditions: PAO1; for Minimal inhibitory concentration, Human Plasma: Mueller-Hinton broth with 50% human plasma; for Minimal inhibitory concentration, Human Serum: Mueller-Hinton broth with human serum
[2] = test system: carbapenem-resistant P. aeruginosa clinical isolate CFS-1292; test: MIC by modified CLSI broth microdilution against P. aeruginosa CFS-1292 (CAA, CAA + human serum); type: cell-based, Pseudomonas aeruginosa
Enterobacter cloacae = test: microbe, parasite or virus in culture; type: cell-based; conditions: Enterobacter cloacae ATCC 13047; CAA supplemented with human serum
Summary of the method: (§1)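 Human serum was added to CAA broth for these MIC determinations with peptides.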

Escherichia coli = test: microbe, parasite or virus in culture; type: cell-based; conditions: Escherichia coli ATCC 25922; CAA supplemented with human serum
Summary of the method: as §1

Klebsiella pneumoniae = type: cell-based; conditions: Klebsiella pneumoniae HM-44; CAA supplemented with human serum
Procedure: Determination of Minimal Inhibitory Concentrations (MIC).
Additional MIC testing was performed for several peptides against the ESKAPE pathogens Escherichia coli, Enterobacter cloacae, Klebsiella pneumoniae, and Acinetobacter baumannii, in CAA supplemented with human serum (Table D).

Acinetobacter baumannii = test: microbe, parasite or virus in culture; type: cell-based; conditions: Acinetobacter baumannii ATCC BAA 747; CAA supplemented with human serum
M. smegmatis = test: 45 hr MIC against M. smegmatis (NTM), Mueller Hinton broth; type: cell-based, Mycobacterium smegmatis; conditions: M. smegmatis MC^2 155, Run #1
LPS = test: Endotoxin neutralization, limulus amoebocyte lysate (LAL) enzyme assay, LPS binding; type: biochemical; conditions: LPS 0.8 EU/mL
Procedure: CHEM. […] The standard reference samples contained only LPS dissolved in pyrogen-free water. Solutions were mixed well and incubated at 24° C. for 1 hour, and the manufacturers' test procedure for quantitative detection of endotoxins was followed.

[3] = test system: A. baumannii strain BAA-747 persister cells; test: Activity against persister cells, A. baumannii; type: cell-based, Acinetobacter baumannii; conditions: A. baumannii BAA-747 persister cells
[4] = test system: P. aeruginosa strain PA20 persister cells; test: Activity against persister cells, P. aeruginosa; type: cell-based, Pseudomonas aeruginosa; conditions: P. aeruginosa PA20 persister cells
[5] = log10 CFU/mL reduction as compared to buffer

“Pediocin (KYYGNGVTCGKHSCSVDWGKATTCIINNGAMAWATGGHQGNHKC; Bacteriocin pediocin PA-1; UniProt P29430 19-62, looked up)” was tested, and the “Minimal inhibitory concentration, Human Plasma” value [1] was >64 µg/mL and the “Minimal inhibitory concentration, Human Serum” value [1] was >64 µg/mL.

Protegrin 1 was tested, and the “Minimal inhibitory concentration, Human Plasma” value [1] was 1 µg/mL and the “Minimal inhibitory concentration, Human Serum” value [1] was 4 µg/mL.

In the case of “MAEQYELSQEQSEQLFSETALQMHEQNELQEIMQGGIEF [Chp5]”, the “MIC (μg/mL) against CFS-1292 in 100% CAA (1st run/2nd run)” value ([2]; 100% CAA, 1st run or single value) is reported as >32 µg/mL, the “MIC (μg/mL) against CFS-1292 in CAA + […] human serum” value ([2]; CAA + […] human serum) is reported as >32 µg/mL and the MIC (Enterobacter cloacae) is reported as >32 µg/mL. The MIC (Escherichia coli) was 4 µg/mL, the MIC (Klebsiella pneumoniae) was 8 µg/mL and the MIC (Acinetobacter baumannii) was >32 µg/mL. The “45 hr MIC” value (M. smegmatis) was >64 µg/mL, the LPS binding (LPS; […]-64 μg/mL, 24° C., 1 hour) was “does not bind LPS” and the “% LPS Bound” value (LPS; peptide concentration 0.5 μg/mL) was 0.1%. For the same substance, the “% LPS Bound” value (LPS; peptide concentration 1 μg/mL) was 0.1%, the “% LPS Bound” value (LPS; peptide concentration 2 μg/mL) was 0.1% and the “% LPS Bound” value (LPS; peptide concentration 4 μg/mL) was 0.1%. For the same substance, the “% LPS Bound” value (LPS; peptide concentration 8 μg/mL) was 5.4%, the “% LPS Bound” value (LPS; peptide concentration 16 μg/mL) was 0.1% and the “% LPS Bound” value (LPS; peptide concentration 32 μg/mL) was 0.1%. For the same substance, the “% LPS Bound” value (LPS; peptide concentration 64 μg/mL) was 0.9%, the “MIC Log10 (CFU/mL) Run #1” value ([3]; 1 hour at 37° C., Run #1, limit of detection 1.6-log10 CFU/mL) was 4.1 Log10 (CFU/mL) and the “MIC Log10 (CFU/mL) Run #2” value ([3]; 1 hour at 37° C., Run #2, limit of detection 1.6-log10 CFU/mL) was 5.1 Log10 (CFU/mL). For the same substance, the “MIC Log10 (CFU/mL) Run #3” value ([3]; 1 hour at 37° C., Run #3, limit of detection 1.6-log10 CFU/mL) was 4.5 Log10 (CFU/mL), the “MIC Log10 (CFU/mL) Average” value ([3]; average of 3 runs) was 4.6 Log10 (CFU/mL) and the “Delta Log” value [3, 5] was 0.3. The “Viable persister count after treatment (log10 CFU/mL)” value ([4]; Run #1, limit of detection 2-log10 CFU/mL) was 4.4 Log10 (CFU/mL), the “Viable persister count after treatment (log10 CFU/mL)” value ([4]; Run #2, limit of detection 2-log10 CFU/mL) was 4.3 Log10 (CFU/mL) and the “Viable persister count after treatment (log10 CFU/mL)” value ([4]; Run #3, limit of detection 2-log10 CFU/mL) was 3.1 Log10 (CFU/mL). For the same substance, the “Viable persister count after treatment (log10 CFU/mL)” value ([4]; average of 3 runs) was 3.9 Log10 (CFU/mL) and the “Delta Log” value [4, 5] was 0.5.
